# Results taken from patent publication US12501899B2, “Mite infestation treatment” (priority 2019, dated 2025).
# Counter-ions that a name gives are not always drawn. Like-named read-outs stand apart in the source and are kept apart here.
# Test system: Ixodes ricinus
# Test: Oral acaricidal test on ticks in membrane feeding wells with treated blood
# Assay type: in vivo
# Details: for mortality at 1 ppm / mortality at 10 ppm / mortality at 100 ppm: Ixodes ricinus, po
# Method: A laboratory study was conducted to determine the oral acaricidal properties of three compounds according to the invention (SN0305, SN0306 and SN0307) against Ixodes ricinus. Each compound was tested at 1, 10 and 100 ppm, and compared to a negative control corresponding to solvent alone (0.1% DMSO). Amitraz at 100 ppm was used as a positive control.
# The Ixodes ricinus ticks (nymphs and adults) were placed for 24 hours on a membrane in feeding wells containing blood mixed with the tested compounds. Tick mortality (number of dead, moribund, or unaffected ticks in each well), attachment to the membrane (number of ticks attached/detached in each well), and the behavior (presence or absence of twitches) were examined 1, 3, 6, 12, 24, 48, 72, and 96 hours after the onset of tick exposure to the compounds.
# Ticks (Ixodes ricinus) were collected. Collected adult females were kept separate from the nymphs and both were placed in sterile tubes in a humidity chamber to provide ˜80% humidity and 17° C. Only healthy ticks (females/nymphs) were chosen for the experiment.
# Batches of 12 adults or nymphs were inserted into the feeding wells. After about 24 hours, their attachment was examined with a brush.
# The efficiency of three compounds (SN0305, SN0306 and SN0307), each tested at three concentrations (1, 10, 100 ppm), was compared to the solvent control (0.1% DMSO, Sigma-Aldrich D-5879; Lot 101K0028) and to the positive control (Amitraze at 100 ppm).
# Silicone-coated membranes with a thickness comprised between 110 and 140 μm were used for the construction of the feeding units.
# Feeding units (sterilized acrylic glass tubes) were placed in feeding wells made of sterilized six-well plates.
# 3.1 ml of sterile 10^−3 M ATP-enriched blood was applied to each feeding well. Feeding wells were then inserted into a heated water bath (FIG. 12) and maintained at 37° C.±2° C.
# Stock solutions of 100,000 ppm were prepared and tenth dilutions were carried out in 0.1% DMSO to reach the desired concentrations. After tick attachment (24 hours after placing the ticks in the feeding wells), 3.1 μl of the solutions were added to each feeding well containing 3.1 ml of blood. Blood was changed after 12 hours with fresh supplementation of the compounds to be tested. The ticks were exposed to the product for a total of 24 hours, after which the blood was again changed to fresh, untreated blood.
# Tick mortality (number of dead, moribund or unaffected ticks in each well), attachment (number of attached/detached ticks in each well) and behavior (presence, absence and intensity of convulsions) were examined 1, 3, 6, 12, 24, 48, 72, and 96 hours after the start of tick exposure to the compound.
# [1] = adult ticks, 1 h, read-out: average percentage of adult tick mortality (moribund or dead adult ticks)
# [2] = adult ticks, 3 h, read-out: average percentage of adult tick mortality (moribund or dead adult ticks)
# [3] = adult ticks, 6 h, read-out: average percentage of adult tick mortality (moribund or dead adult ticks)
# [4] = adult ticks, 12 h, read-out: average percentage of adult tick mortality (moribund or dead adult ticks)
# [5] = adult ticks, 24 h, read-out: average percentage of adult tick mortality (moribund or dead adult ticks)
# [6] = adult ticks, 48 h, read-out: average percentage of adult tick mortality (moribund or dead adult ticks)
# [7] = adult ticks, 72 h, read-out: average percentage of adult tick mortality (moribund or dead adult ticks)
# [8] = adult ticks, 96 h, read-out: average percentage of adult tick mortality (moribund or dead adult ticks)
# [9] = nymphs, 1 h, read-out: average percentage of mortality of tick nymphs (moribund or dead nymphs)
# [10] = nymphs, 3 h, read-out: average percentage of mortality of tick nymphs (moribund or dead nymphs)
# [11] = nymphs, 6 h, read-out: average percentage of mortality of tick nymphs (moribund or dead nymphs)
# [12] = nymphs, 12 h, read-out: average percentage of mortality of tick nymphs (moribund or dead nymphs)
# [13] = nymphs, 24 h, read-out: average percentage of mortality of tick nymphs (moribund or dead nymphs)
# [14] = nymphs, 48 h, read-out: average percentage of mortality of tick nymphs (moribund or dead nymphs)
# [15] = nymphs, 72 h, read-out: average percentage of mortality of tick nymphs (moribund or dead nymphs)
# [16] = nymphs, 96 h, read-out: average percentage of mortality of tick nymphs (moribund or dead nymphs)
compound,measurement,setting,value
"Cc1cccc(Cc2cnc[nH]2)c1C [Detomidine hydrochloride, 4-[(2,3-dimethylphenyl)-methyl]-3H-imidazole]",effect in terms of tick detachment (in words),"1, 10, 100 ppm, nymphs and adults",very limited effect
same,detached adults in a replica,"1 ppm, adult ticks",2
same,mortality at 1 ppm,"adult ticks, 1 ppm, 1 h, read-out: average percentage of adult tick mortality (moribund or dead adult ticks)",0%
same,mortality at 1 ppm,"adult ticks, 1 ppm, 3 h, read-out: average percentage of adult tick mortality (moribund or dead adult ticks)",0%
same,mortality at 1 ppm,"adult ticks, 1 ppm, 6 h, read-out: average percentage of adult tick mortality (moribund or dead adult ticks)",2.8%
same,mortality at 1 ppm,"adult ticks, 1 ppm, 12 h, read-out: average percentage of adult tick mortality (moribund or dead adult ticks)",2.8%
same,mortality at 1 ppm,"adult ticks, 1 ppm, 24 h, read-out: average percentage of adult tick mortality (moribund or dead adult ticks)",62.9%
same,mortality at 1 ppm,"adult ticks, 1 ppm, 48 h, read-out: average percentage of adult tick mortality (moribund or dead adult ticks)",88.2%
same,mortality at 1 ppm,"adult ticks, 1 ppm, 72 h, read-out: average percentage of adult tick mortality (moribund or dead adult ticks)",100%
same,mortality at 1 ppm,"adult ticks, 1 ppm, 96 h, read-out: average percentage of adult tick mortality (moribund or dead adult ticks)",100%
same,mortality at 10 ppm,[1],0%
same,mortality at 10 ppm,[2],0%
same,mortality at 10 ppm,[3],8.3%
same,mortality at 10 ppm,[4],8.3%
same,mortality at 10 ppm,[5],52.1%
same,mortality at 10 ppm,[6],96.4%
same,mortality at 10 ppm,[7],100%
same,mortality at 10 ppm,[8],100%
same,mortality at 100 ppm,[1],0%
same,mortality at 100 ppm,[2],0%
same,mortality at 100 ppm,[3],8.8%
same,mortality at 100 ppm,[4],15.4%
same,mortality at 100 ppm,[5],24%
same,mortality at 100 ppm,[6],57.4%
same,mortality at 100 ppm,[7],100%
same,mortality at 100 ppm,[8],100%
same,mortality at 1 ppm,"nymphs, 1 ppm, 1 h, read-out: average percentage of mortality of tick nymphs (moribund or dead nymphs)",0%
same,mortality at 1 ppm,"nymphs, 1 ppm, 3 h, read-out: average percentage of mortality of tick nymphs (moribund or dead nymphs)",0%
same,mortality at 1 ppm,"nymphs, 1 ppm, 6 h, read-out: average percentage of mortality of tick nymphs (moribund or dead nymphs)",14.1%
same,mortality at 1 ppm,"nymphs, 1 ppm, 12 h, read-out: average percentage of mortality of tick nymphs (moribund or dead nymphs)",35.4%
same,mortality at 1 ppm,"nymphs, 1 ppm, 24 h, read-out: average percentage of mortality of tick nymphs (moribund or dead nymphs)",56.4%
same,mortality at 1 ppm,"nymphs, 1 ppm, 48 h, read-out: average percentage of mortality of tick nymphs (moribund or dead nymphs)",97.2%
same,mortality at 1 ppm,"nymphs, 1 ppm, 72 h, read-out: average percentage of mortality of tick nymphs (moribund or dead nymphs)",100%
same,mortality at 1 ppm,"nymphs, 1 ppm, 96 h, read-out: average percentage of mortality of tick nymphs (moribund or dead nymphs)",100%
same,mortality at 10 ppm,[9],0%
same,mortality at 10 ppm,[10],12.7%
same,mortality at 10 ppm,[11],35.5%
same,mortality at 10 ppm,[12],54.7%
same,mortality at 10 ppm,[13],88.1%
same,mortality at 10 ppm,[14],100%
same,mortality at 10 ppm,[15],100%
same,mortality at 10 ppm,[16],100%
same,mortality at 100 ppm,[9],0%
same,mortality at 100 ppm,[10],9.4%
same,mortality at 100 ppm,[11],45.3%
same,mortality at 100 ppm,[12],69.5%
same,mortality at 100 ppm,[13],95.5%
same,mortality at 100 ppm,[14],100%
same,mortality at 100 ppm,[15],100%
same,mortality at 100 ppm,[16],100%
same,"ticks affected (convulsion, morbidity or death of ticks)","from 1 hour of exposure, regardless of the concentration tested (1, 10, 100 ppm)",100%
